# From patent publication US6737383B1, “Herbicidal oxadiazolidines” (priority 1999, dated 2004)
# Experiments:
# soybean = test: Test B pre/postemergence soybean; format: in vivo, Glycine max; conditions: for Soybean plant response rating: Postemergence; for Plant response rating, Soybean: Preemergence
# Method in brief: (§1)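 Response is a visual 0-to-10 score relative to untreated plants, where 0 means no effect and 10 means complete control, taken twelve to sixteen days after application. Treatments went onto soil at planting and onto foliage of 1- to 4-leaf plants, using a surfactant-containing non-phytotoxic solvent.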
# rice = test: Test B flood test rice; format: in vivo, Oryza sativa
# Method in brief: (§2)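 Each value is a visual injury score relative to controls, with 10 meaning complete control and 0 no effect. Evaluation took place twelve to sixteen days after the 2-leaf-stage plants were treated and kept in the greenhouse.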
# bamyardgrass = test: Test B flood test barnyardgrass; format: in vivo, Echinochloa crus-galli
# Method in brief: as §2
# sugar beet = test: Test B pre/postemergence sugar beet; format: in vivo, Beta vulgaris; conditions: for Sugarbeets plant response rating: Postemergence; for Plant response rating, Sugarbeets: Preemergence
# Method in brief: as §1
# wild oat = test: Test B pre/postemergence wild oat; format: in vivo, Avena fatua; conditions: for Wild oats plant response rating: Postemergence; for Plant response rating, Wild oats: Preemergence
# Method in brief: as §1
# blackgrass = test: Test B pre/postemergence blackgrass; format: in vivo, Alopecurus myosuroides; conditions: for Blackgrass plant response rating: Postemergence; for Plant response rating, Blackgrass: Preemergence
# Method in brief: as §1
# velvetleaf = test: Test B pre/postemergence velvetleaf; format: in vivo, Abutilon theophrasti; conditions: for Velvetleaf plant response rating: Postemergence; for Plant response rating, Velvetleaf: Preemergence
# Method in brief: as §1
# corn = test: Test B pre/postemergence corn; format: in vivo, Zea mays; conditions: for Corn plant response rating: Postemergence; for Plant response rating, Corn: Preemergence
# Method in brief: as §1
# cocklebur = test: Test B pre/postemergence cocklebur; format: in vivo, Xanthium strumarium; conditions: for Cocklebur plant response rating: Postemergence; for Plant response rating, Cocklebur: Preemergence
# Method in brief: as §1
# wheat = test: Test B pre/postemergence wheat; format: in vivo, Triticum aestivum; conditions: for Wheat plant response rating: Postemergence; for Plant response rating, Wheat: Preemergence
# Method in brief: as §1
# giant foxtail = test: Test B pre/postemergence giant foxtail; format: in vivo, Setaria faberii; conditions: for Giant foxtail plant response rating: Postemergence; for Plant response rating, Giant foxtail: Preemergence
# Method in brief: as §1
# purple nutsedge = test: Test B pre/postemergence purple nutsedge; format: in vivo, Cyperus rotundus; conditions: for Nutsedge plant response rating: Postemergence; for Plant response rating, Nutsedge: Preemergence
# Method in brief: as §1
# pigweed = test: Test B pre/postemergence pigweed; format: in vivo, Amaranthus retroflexus; conditions: for Redroot pigweed plant response rating: Postemergence; for Plant response rating, Redroot pigweed: Preemergence
# Method in brief: as §1
# smallflower flatsedge = test: Test B flood test smallflower flatsedge; format: in vivo, Cyperus difformis
# Method in brief: as §2
# rape = test: Test B pre/postemergence rape; format: in vivo, Brassica napus; conditions: for Rape plant response rating: Postemergence; for Plant response rating, Rape: Preemergence
# Method in brief: as §1
# bedstraw = test: Test B pre/postemergence bedstraw; format: in vivo, Galium aparine; conditions: Postemergence
# Method in brief: as §1
# morningglory = test: Test B pre/postemergence morningglory; format: in vivo, Ipomoea hederacea; conditions: for Morningglory plant response rating: Postemergence; for Plant response rating, Morningglory: Preemergence
# Method in brief: as §1
# crabgrass = test: Test B pre/postemergence crabgrass; format: in vivo, Digitaria sanguinalis; conditions: for Crabgrass plant response rating: Postemergence; for Plant response rating, Crabgrass: Preemergence
# Method in brief: as §1
# surinam grass = test: Test B pre/postemergence surinam grass; format: in vivo, Brachiaria decumbens; conditions: for B. signalgrass plant response rating: Postemergence; for Plant response rating, B. signalgrass: Preemergence
# Method in brief: as §1
# duck salad = test: Test B flood test duck salad; format: in vivo, Heteranthera limosa
# Method in brief: as §2
# [1] = Rate 125 g/ha, scale of 0 to 10 where 0 is no effect and 10 is complete control
# [2] = Rate 500 g/ha, scale of 0 to 10 where 0 is no effect and 10 is complete control
# [3] = Rate 250 g/ha, scale 0 to 10, 0 is no effect, 10 is complete control
# [4] = Rate 500 g/ha, scale 0 to 10, 0 is no effect, 10 is complete control
# [5] = Rate 1000 g/ha, scale 0 to 10 (0 no effect, 10 complete control)
# [6] = Pre-emergence, Rate 1000 g/ha, scale 0 to 10 (0 no effect, 10 complete control)
# [7] = Rate 125 g/ha, under heading Pre-emergence, flood test species, visual evaluation after twelve to sixteen days
# [8] = Rate 250 g/ha, Pre-emergence (flood test species), scale 0 to 10, 0 is no effect, 10 is complete control
# [9] = Rate 500 g/ha, Pre-emergence section of Table B, 0 to 10 scale (0 no effect, 10 complete control)
# [10] = Rate 250 g/ha, scale 0 to 10 (0 no effect, 10 complete control)
smiles,measurement,setting,value
COC(=O)C(CCO)n1c(=O)on(C(=O)N(c2ccccc2)C(C)C)c1=O (centres unmarked) [Compound 678],Soybean plant response rating,soybean; [1],1
same,"Plant response rating, Soybean",soybean; [1],0
same,"Plant response rating, Soybean",soybean; [2],0
same,Soybean plant response rating,soybean; [3],2
same,Soybean plant response rating,soybean; [4],2
same,"Plant response rating, Soybean",soybean; [5],0
same,Rice plant response rating,rice; [6],0
same,"Rice plant response rating (0 to 10 scale, 0 is no effect, 10 is complete control)",rice; [7],0
same,Rice plant response rating,rice; [8],0
same,Rice plant response rating,rice; [9],0
same,Barnyardgrass plant response rating,bamyardgrass; [6],0
same,"Barnyardgrass plant response rating (0 to 10 scale, 0 is no effect, 10 is complete control)",bamyardgrass; [7],0
same,Barnyardgrass plant response rating,bamyardgrass; [8],0
same,Barnyardgrass plant response rating,bamyardgrass; [9],0
same,Sugarbeets plant response rating,sugar beet; [1],0
same,"Plant response rating, Sugarbeets",sugar beet; [1],0
same,"Plant response rating, Sugarbeets",sugar beet; [2],0
same,Sugarbeets plant response rating,sugar beet; [3],0
same,Sugarbeets plant response rating,sugar beet; [4],0
same,"Plant response rating, Sugarbeets",sugar beet; [5],0
same,Wild oats plant response rating,wild oat; [1],0
same,"Plant response rating, Wild oats",wild oat; [1],0
same,"Plant response rating, Wild oats",wild oat; [2],0
same,Wild oats plant response rating,wild oat; [3],0
same,Wild oats plant response rating,wild oat; [4],0
same,"Plant response rating, Wild oats",wild oat; [5],0
same,Blackgrass plant response rating,blackgrass; [1],0
same,Blackgrass plant response rating,blackgrass; [5],6
same,"Plant response rating, Blackgrass",blackgrass; [1],0
same,"Plant response rating, Blackgrass",blackgrass; [10],0
same,"Plant response rating, Blackgrass",blackgrass; [2],0
same,Blackgrass plant response rating,blackgrass; [3],0
same,Blackgrass plant response rating,blackgrass; [4],3
same,"Plant response rating, Blackgrass",blackgrass; [5],1
same,Velvetleaf plant response rating,velvetleaf; [1],0
same,"Plant response rating, Velvetleaf",velvetleaf; [1],0
same,"Plant response rating, Velvetleaf",velvetleaf; [2],2
same,Velvetleaf plant response rating,velvetleaf; [3],0
same,Velvetleaf plant response rating,velvetleaf; [4],3
same,"Plant response rating, Velvetleaf",velvetleaf; [5],5
same,Corn plant response rating,corn; [1],0
same,Corn plant response rating,corn; [5],0
same,"Plant response rating, Corn",corn; [1],0
same,"Plant response rating, Corn",corn; [10],0
same,"Plant response rating, Corn",corn; [2],0
same,Corn plant response rating,corn; [3],0
same,Corn plant response rating,corn; [4],0
same,"Plant response rating, Corn",corn; [5],0
same,Cocklebur plant response rating,cocklebur; [1],0
same,Cocklebur plant response rating,cocklebur; [5],3
same,"Plant response rating, Cocklebur",cocklebur; [1],0
same,"Plant response rating, Cocklebur",cocklebur; [10],0
same,"Plant response rating, Cocklebur",cocklebur; [2],0
same,Cocklebur plant response rating,cocklebur; [3],0
same,Cocklebur plant response rating,cocklebur; [4],2
same,"Plant response rating, Cocklebur",cocklebur; [5],0
same,Wheat plant response rating,wheat; [1],0
same,"Plant response rating, Wheat",wheat; [1],0
same,"Plant response rating, Wheat",wheat; [2],0
same,Wheat plant response rating,wheat; [3],0
same,Wheat plant response rating,wheat; [4],0
same,"Plant response rating, Wheat",wheat; [5],0
same,Giant foxtail plant response rating,giant foxtail; [1],0
same,Giant foxtail plant response rating,giant foxtail; [5],7
same,"Plant response rating, Giant foxtail",giant foxtail; [1],0
same,"Plant response rating, Giant foxtail",giant foxtail; [2],4
same,Giant foxtail plant response rating,giant foxtail; [3],1
same,Giant foxtail plant response rating,giant foxtail; [4],6
same,"Plant response rating, Giant foxtail",giant foxtail; [5],6
same,Nutsedge plant response rating,purple nutsedge; [1],0
same,"Plant response rating, Nutsedge",purple nutsedge; [1],0
same,"Plant response rating, Nutsedge",purple nutsedge; [2],0
same,Nutsedge plant response rating,purple nutsedge; [3],0
same,Nutsedge plant response rating,purple nutsedge; [4],0
same,"Plant response rating, Nutsedge",purple nutsedge; [5],0
same,Redroot pigweed plant response rating,pigweed; [1],0
same,Redroot pigweed plant response rating,pigweed; [5],5
same,"Plant response rating, Redroot pigweed",pigweed; [1],0
same,"Plant response rating, Redroot pigweed",pigweed; [2],0
same,Redroot pigweed plant response rating,pigweed; [3],0
same,Redroot pigweed plant response rating,pigweed; [4],2
same,"Plant response rating, Redroot pigweed",pigweed; [5],4
same,S. Flatsedge plant response rating,smallflower flatsedge; [6],0
same,"S. Flatsedge plant response rating (0 to 10 scale, 0 is no effect, 10 is complete control)",smallflower flatsedge; [7],0
same,S. Flatsedge plant response rating,smallflower flatsedge; [8],0
same,S. Flatsedge plant response rating,smallflower flatsedge; [9],0
same,Rape plant response rating,rape; [1],0
same,Rape plant response rating,rape; [5],2
same,"Plant response rating, Rape",rape; [1],0
same,"Plant response rating, Rape",rape; [2],0
same,Rape plant response rating,rape; [3],0
same,Rape plant response rating,rape; [4],0
same,"Plant response rating, Rape",rape; [5],0
same,Bedstraw plant response rating,bedstraw; [1],0
same,Bedstraw plant response rating,bedstraw; [5],0
same,Bedstraw plant response rating,bedstraw; [3],0
same,Bedstraw plant response rating,bedstraw; [4],0
same,Morningglory plant response rating,morningglory; [1],6
same,"Plant response rating, Morningglory",morningglory; [1],0
same,"Plant response rating, Morningglory",morningglory; [2],0
same,Morningglory plant response rating,morningglory; [3],6
same,Morningglory plant response rating,morningglory; [4],8
same,"Plant response rating, Morningglory",morningglory; [5],1
same,Crabgrass plant response rating,crabgrass; [1],0
same,"Plant response rating, Crabgrass",crabgrass; [1],0
same,"Plant response rating, Crabgrass",crabgrass; [10],0
same,"Plant response rating, Crabgrass",crabgrass; [2],1
same,Crabgrass plant response rating,crabgrass; [3],0
same,Crabgrass plant response rating,crabgrass; [4],6
same,"Plant response rating, Crabgrass",crabgrass; [5],3
same,B. signalgrass plant response rating,surinam grass; [1],0
same,B. signalgrass plant response rating,surinam grass; [5],4
same,"Plant response rating, B. signalgrass",surinam grass; [1],0
same,"Plant response rating, B. signalgrass",surinam grass; [10],0
same,"Plant response rating, B. signalgrass",surinam grass; [2],0
same,B. signalgrass plant response rating,surinam grass; [3],0
same,B. signalgrass plant response rating,surinam grass; [4],2
same,"Plant response rating, B. signalgrass",surinam grass; [5],0
same,Ducksalad plant response rating,duck salad; [6],0
same,"Ducksalad plant response rating (0 to 10 scale, 0 is no effect, 10 is complete control)",duck salad; [7],0
same,Ducksalad plant response rating,duck salad; [8],0
same,Ducksalad plant response rating,duck salad; [9],0
